Experimental data: ChEMBL document CHEMBL4190285, “Borapetoside E, a Clerodane Diterpenoid Extracted from Tinospora crispa, Improves Hyperglycemia and Hyperlipidemia in High-Fat-Diet-Induced Type 2 Diabetes Mice” (J Nat Prod, 2017)
Active and inactive are the calls of the source. The calls are words filed in the database; no cut-off is given here.

Tests used:
Mus musculus [1] = experiment: Improvement in insulin resistance in high fat diet-induced obese C57BL/6J mouse assessed as reduction in fasting serum insulin level at 40 mg/kg, ip pretreated twice daily for 2.5 days followed by insulin challenge at 2 hrs post last dose measured up to 2 hrs by ELISA based ITT; format: functional, organism-based
Mus musculus [2] = experiment: Down regulation of HMGCS mRNA expression in HFD-induced obese C57BL/6J mouse liver at 20 to 40 mg/kg, ip administered twice daily for 2.5 days measured at 2 hrs post last dose by RT-PCR analysis; format: functional, organism-based
Mus musculus [3] = experiment: Effect on respiratory exchange ratios in HFD-induced obese C57BL/6J mouse at 40 mg/kg, ip administered twice daily for 2.5 days incubated for 12.6 hrs under dark condition followed by redosing on day 3 for 2 times; format: functional, organism-based
Mus musculus [4] = experiment: Increase in oxygen consumption in HFFD-induced obese C57BL/6J mouse at 40 mg/kg, ip administered twice daily for 2.5 days measured up to 12.6 hrs under dark condition; format: functional, organism-based
Mus musculus [5] = experiment: Down regulation of ABCG5 mRNA expression in HFD-induced obese C57BL/6J mouse liver at 20 to 40 mg/kg, ip administered twice daily for 2.5 days measured at 2 hrs post last dose by RT-PCR analysis; format: functional, organism-based
Mus musculus [6] = experiment: Antihyperlipidemic activity in high fat diet-induced obese C57BL/6J mouse assessed as reduction in free fatty acid level in epididymis adipose tissue at 20 to 40 mg/kg, ip administered twice daily for 2.5 days measured at 2 hrs post last dose; format: functional, organism-based
Mus musculus [7] = experiment: Antihyperlipidemic activity in high fat diet-induced obese C57BL/6J mouse assessed as serum LDL-C levels at 20 mg/kg, ip administered twice daily for 2.5 days measured at 2 hrs post last dose (reference value: 2.54 +/- 0.87 mmol/L); format: functional
Mus musculus [8] = experiment: Antihyperlipidemic activity in high fat diet-induced obese C57BL/6J mouse assessed as reduction in liver free fatty acid level at 20 to 40 mg/kg, ip administered twice daily for 2.5 days measured at 2 hrs post last dose; format: functional, organism-based
Mus musculus [9] = experiment: Antihyperlipidemic activity in high fat diet-induced obese C57BL/6J mouse assessed as serum HDL-C levels at 20 mg/kg, ip administered twice daily for 2.5 days measured at 2 hrs post last dose (reference value: 1.82 +/- 0.58 mmol/L); format: functional
Mus musculus [10] = experiment: Improvement in insulin resistance in high fat diet-induced obese C57BL/6J mouse assessed as increase in phosphorylated GSK3beta expression in skeletal muscle at 40 mg/kg, ip administered twice daily for 2.5 days measured at 2 hrs post last dose by Western blot analysis; format: functional, organism-based
Mus musculus [11] = experiment: Antiobesity activity in HFFD-induced obese C57BL/6J mouse assessed as reduction in size of adipocytes at 40 mg/kg, ip administered twice daily for 2.5 days followed by once daily dosing up to 16 days measured at 2 hrs post last dose by hematoxylin-eosin staining based histological analysis; format: functional, organism-based
Mus musculus [12] = experiment: Down regulation of SREBP2 mRNA expression in HFD-induced obese C57BL/6J mouse adipose tissue at 20 to 40 mg/kg, ip administered twice daily for 2.5 days measured at 2 hrs post last dose by RT-PCR analysis; format: functional, organism-based
Mus musculus [13] = experiment: Antihyperglycemic activity in high fat diet-induced obese C57BL/6J mouse assessed as reduction in blood glucose AUC at 40 mg/kg, ip pretreated twice daily for 2.5 days followed by glucose challenge at 2 hrs post last dose by OGTT; format: functional, organism-based
Mus musculus [14] = experiment: Antiobesity activity in HFFD-induced obese C57BL/6J mouse assessed as reduction in body weight at 40 mg/kg, ip administered twice daily for 2.5 days followed by once daily dosing up to 16 days relative to control; format: functional; design: scale not given: the % may be the effect or the level left
Mus musculus [15] = experiment: Down regulation of FAS mRNA expression in HFD-induced obese C57BL/6J mouse liver at 20 to 40 mg/kg, ip administered twice daily for 2.5 days measured at 2 hrs post last dose by RT-PCR analysis; format: functional, organism-based
Mus musculus [16] = experiment: Improvement in insulin resistance in high fat diet-induced obese C57BL/6J mouse assessed as increase in GLUT2 expression in skeletal muscle at 40 mg/kg, ip administered twice daily for 2.5 days measured at 2 hrs post last dose by Western blot analysis; format: functional, organism-based
Mus musculus [17] = experiment: Increase in phosphorylated AMPKalpha level in HFFD-induced obese C57BL/6J mouse liver at 20 to 40 mg/kg, ip administered twice daily for 2.5 days measured at 2 hrs post last dose by Western blot analysis; format: functional, organism-based
Mus musculus [18] = experiment: Antihyperlipidemic activity in high fat diet-induced obese C57BL/6J mouse assessed as reduction in liver cholesterol levels at 20 to 40 mg/kg, ip administered twice daily for 2.5 days measured at 2 hrs post last dose; format: functional, organism-based
Mus musculus [19] = experiment: Increase in oxygen consumption in HFD-induced obese C57BL/6J mouse at 40 mg/kg, ip administered twice daily for 2.5 days incubated for 12.6 hrs under dark condition followed by redosing on day 3 for 2 times; format: functional, organism-based
Mus musculus [20] = experiment: Antihyperlipidemic activity in high fat diet-induced obese C57BL/6J mouse assessed as serum LDL-C levels at 40 mg/kg, ip administered twice daily for 2.5 days measured at 2 hrs post last dose (reference value: 2.54 +/- 0.87 mmol/L); format: functional
Mus musculus [21] = experiment: Antihyperlipidemic activity in high fat diet-induced obese C57BL/6J mouse assessed as serum triglyceride levels at 40 mg/kg, ip administered twice daily for 2.5 days measured at 2 hrs post last dose (reference value: 1.31 +/- 0.48 mmol/L); format: functional
Mus musculus [22] = experiment: Down regulation of pre-SREBP1 expression in HFD-induced obese C57BL/6J mouse liver at 20 to 40 mg/kg, ip administered twice daily for 2.5 days measured at 2 hrs post last dose by Western blot analysis; format: functional, organism-based
Mus musculus [23] = experiment: Antihyperlipidemic activity in high fat diet-induced obese C57BL/6J mouse assessed as reduction in cholesterol level in epididymis adipose tissue at 20 to 40 mg/kg, ip administered twice daily for 2.5 days measured at 2 hrs post last dose; format: functional, organism-based
Mus musculus [24] = experiment: Down regulation of ACL1 mRNA expression in HFD-induced obese C57BL/6J mouse liver at 20 to 40 mg/kg, ip administered twice daily for 2.5 days measured at 2 hrs post last dose by RT-PCR analysis; format: functional, organism-based
Mus musculus [25] = experiment: Down regulation of SREBP1 mRNA expression in HFD-induced obese C57BL/6J mouse adipose tissue at 20 to 40 mg/kg, ip administered twice daily for 2.5 days measured at 2 hrs post last dose by RT-PCR analysis; format: functional, organism-based
Mus musculus [26] = experiment: Down regulation of HMGCS mRNA expression in HFD-induced obese C57BL/6J mouse adipose tissue at 20 to 40 mg/kg, ip administered twice daily for 2.5 days measured at 2 hrs post last dose by RT-PCR analysis; format: functional, organism-based
Mus musculus [27] = experiment: Antihyperglycemic activity in high fat diet-induced obese C57BL/6J mouse assessed as reduction in blood glucose level at 40 mg/kg, ip administered as single dose measured after 36 hrs; format: functional, organism-based
Mus musculus [28] = experiment: Improvement in insulin resistance in high fat diet-induced obese C57BL/6J mouse assessed as reduction in fasting serum glucose level at 40 mg/kg, ip pretreated twice daily for 2.5 days followed by insulin challenge at 2 hrs post last dose measured up to 2 hrs by ITT; format: functional, organism-based

SMILES: COC(=O)C1=CCC[C@H]2[C@](C)(C[C@@H](O[C@@H]3O[C@H](CO)[C@@H](O)[C@H](O)[C@H]3O)c3ccoc3)[C@H]3C[C@H](OC3=O)[C@@]12C
- Activity (Mus musculus [1]): Active
- Activity (Mus musculus [2]): Active
- Activity (Mus musculus [3]): inactive
- Activity (Mus musculus [4]): Active
- Activity (Mus musculus [5]): Active
- Activity (Mus musculus [6]): Active
- Activity (Mus musculus [7]): 2.21 mmol/L
- Activity (Mus musculus [8]): Active
- Activity (Mus musculus [9]): 1.2 mmol/L
- Activity (Mus musculus [10]): Active
- Activity (Mus musculus [11]): Active
- Activity (Mus musculus [12]): Active
- Activity (Mus musculus [13]): Active
- Activity (Mus musculus [14]): 8.7%
- Activity (Mus musculus [15]): Active
- Activity (Mus musculus [16]): Active
- Activity (Mus musculus [17]): inactive
- Activity (Mus musculus [18]): Active
- Activity (Mus musculus [19]): Active
- Activity (Mus musculus [20]): 1.65 mmol/L
- Activity (Mus musculus [21]): 0.5 mmol/L
- Activity (Mus musculus [22]): Active
- Activity (Mus musculus [23]): Active
- Activity (Mus musculus [24]): Active
- Activity (Mus musculus [25]): Active
- Activity (Mus musculus [26]): Active
- Activity (Mus musculus [27]): Active
- Activity (Mus musculus [28]): Active
